Results on 2 molecules are retold here after article PMC5743427, “Inhibition of PIP4Kγ ameliorates the pathological effects of mutant huntingtin protein” (eLife, 2017).

One assay has as its target T1, PIP4K2C (Homo sapiens, UniProt Q8TBX8).
T1 sequence (Q8TBX8 2-421): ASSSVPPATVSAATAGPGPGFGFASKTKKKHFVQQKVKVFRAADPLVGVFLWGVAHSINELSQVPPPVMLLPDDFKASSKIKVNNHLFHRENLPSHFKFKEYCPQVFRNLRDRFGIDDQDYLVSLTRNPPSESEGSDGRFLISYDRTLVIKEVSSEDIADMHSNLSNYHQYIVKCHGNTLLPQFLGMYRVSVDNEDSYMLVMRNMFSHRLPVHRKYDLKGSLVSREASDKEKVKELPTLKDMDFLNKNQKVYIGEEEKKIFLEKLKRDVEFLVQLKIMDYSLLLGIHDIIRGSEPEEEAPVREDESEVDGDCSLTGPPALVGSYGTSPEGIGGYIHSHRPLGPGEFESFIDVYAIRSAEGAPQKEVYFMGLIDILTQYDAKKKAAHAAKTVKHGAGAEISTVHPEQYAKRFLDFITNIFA
Put plainly: KINOMEscan competition binding, single dose […]. Conditions: 10 µM.

For a further assay, the target named is T2, PIP4Kγ (Homo sapiens, UniProt Q8TBX8).
T2 construct: gene PIP4K2C; KINOMEscan construct for Kd; full length isolated PIP4Kγ for the enzyme assay
T2 sequence (Q8TBX8 2-421): T1 sequence (Q8TBX8 2-421)
Put plainly: DiscoverX KINOMEscan competition binding Kd; also […] lipid kinase assay with purified full-length enzyme (IC50 […]).

The next assay has as its target T3, PIP4Kalpha (Homo sapiens, UniProt P48426).
T3 construct: gene PIP4K2A
T3 sequence (P48426 2-406): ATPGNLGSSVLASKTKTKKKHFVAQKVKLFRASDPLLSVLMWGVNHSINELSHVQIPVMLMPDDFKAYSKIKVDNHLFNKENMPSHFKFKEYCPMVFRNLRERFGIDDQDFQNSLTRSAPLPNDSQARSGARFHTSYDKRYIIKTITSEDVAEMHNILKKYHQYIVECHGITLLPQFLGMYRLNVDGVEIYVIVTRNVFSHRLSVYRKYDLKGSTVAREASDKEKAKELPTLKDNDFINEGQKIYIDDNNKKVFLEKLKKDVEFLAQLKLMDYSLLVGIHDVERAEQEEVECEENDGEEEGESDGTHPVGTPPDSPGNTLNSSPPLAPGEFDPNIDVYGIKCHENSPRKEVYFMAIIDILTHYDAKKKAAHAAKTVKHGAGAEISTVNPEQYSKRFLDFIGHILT
Put plainly: […] lipid kinase assay (PI5P phosphorylation) with purified recombinant enzyme; weak inhibition. The assay is classed as biochemical.

At PIP4K2C, `Cn1nnnc1Sc1ncnc2scc(-c3ccccc3)c12` [ML168] yielded an ML168 of 23.

In the case of `Cn1nnnc1Sc1ncnc2scc(-c3cccc(S(C)(=O)=O)c3)c12` [NCT-504, 4-((1-methyl-1H-tetrazol-5-yl)thio)−5-(3-(methylsulfonyl)phenyl)thieno[2,3-d]pyrimidine], the affinity at PIP4Kγ, expressed as Kd, was 354 nM. Besides, on PIP4Kalpha, the IC50 lay within 50 to 100 µM.

In general, Kd refers to the equilibrium constant for the complex coming apart. In general, IC50 refers to the concentration at which inhibition is half-maximal.
